US20210330611A1, “THERAPY FOR NEUROLOGICAL DISEASES/DISORDERS” (priority 2020, published 2021)
Values joined by “and” are separate entries in the source; they are usually repeats but may differ in a detail not shown here. Equal values may be shown once. Read-outs that look alike come from different tables or passages of the source.

What was measured:
[1] = tested on: fibrin-induced microglia activation; assay: Image-based assay of fibrin-induced microglia activation (HTS and dose response); type: cell-based, rat; settings: primary microglia HTS, fibrin stimulation, compounds at 10 μM; for inhibition at 10 µM: Rattus norvegicus, Microglia, read-out: Fibrin % inhibition
[2] = tested on: LPS-induced microglia activation; assay: Image-based assay of LPS-induced microglia activation (HTS and dose response); type: cell-based, rat; settings: primary microglia HTS, LPS stimulation, compounds at 10 μM; for inhibition at 10 µM: Rattus norvegicus, Microglia, read-out: LPS % inhibition
[3] = tested on: fibrin- and LPS-induced microglia activation; assay: cells; type: cell-based, rat; settings: classification by fibrin and LPS inhibition, HTS at 10 μM
primary rat microglia [4] = tested on: primary rat microglia
primary rat microglia [5] = assay: Cell toxicity (dead cells, size <150 μm2) in coated fibrin (cFib) assay; settings: primary microglia HTS, fibrin assay, dead cells (size <150 μm2), compounds at 10 μM;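 also: share of dead cells sized under 150 µm2 at 10 µM in fibrin-stimulated microglia HTS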

Structure (SMILES) | inhibition at 10 µM [1] [%] | inhibition at 10 µM [2] [%] | Quadrant (FIG. 5b) [3] | LPS % cell toxicity (primary rat microglia [4]; rat) [%] | Fibrin % cell toxicity (primary rat microglia [5]) [%] | Fibrin % inhibition [1] [%] | LPS % inhibition [2] [%] | LPS % cell toxicity (primary rat microglia [4]) [%] | Fibrin % inhibition ([1]; 10 µM) | LPS % inhibition ([2]; 10 µM)
CC1CC(OC(=O)C(O)c2ccccc2)CC(C)(C)C1 (stereo not shown) [Cyclandelate] | -57 | 4 | Q4 | 0 | 0 | – | – | – | – | –
CN1CCN(C(c2ccccc2)c2ccccc2)CC1 [Cyclizine] | -23 | 34 | Q4 | 1 | 0 | – | – | – | – | –
CN(C)CCOC(=O)C(c1ccccc1)C1(O)CCCC1 (stereo not shown) [Cyclopentolate] | -8 | 9 | Q4 | 0 | 1 | – | – | – | – | –
N[C@@H]1CON=C1O [Cycloserine] | -4 | 19 | Q4 | 0 | 0 | – | – | – | – | –
Nc1nc(N)nc(NC2CC2)n1 [Cyromazine] | -9 | 9 | Q4 | 0 | 1 | – | – | – | – | –
N[C@H](Cc1ccccc1)C(=O)O [D-phenylalanine] | 1 | 23 | Q4 | 0 | 1 | – | – | – | – | –
CCCCCCOC(=O)NC(=N)c1ccc(NCc2nc3cc(C(=O)N(CCC(=O)OCC)c4ccccn4)ccc3n2C)cc1 [Dabigatran etexilate] | 3 | 9 | Q4 | 0 | 0 | – | – | – | – | –
Nc1ccncc1 [Dalfampridine] | 8 | 2 | Q4 | 0 | 2 | – | – | – | – | –
O=C1c2cccc(O)c2C(=O)c2c(O)cccc21 [Dantron, Danthron] | – | – | Q4 | – | 0 | −9 | 13 | 0 | – | –
Cc1ccccc1N1CCN(CCc2nnc3n2CCCC3)CC1 [Dapiprazole] | -9 | 14 | Q4 | 0 | 1 | – | – | – | – | –
CCCCCCCCCC(=O)N[C@@H](Cc1c[nH]c2ccccc12)C(=O)N[C@@H](CC(N)=O)C(=O)N[C@@H](CC(=O)O)C(=O)N[C@@H]1C(=O)NCC(=O)N[C@@H](CCCN)C(=O)N[C@@H](CC(=O)O)C(=O)N[C@H](C)C(=O)N[C@@H](CC(=O)O)C(=O)NCC(=O)N[C@H](CO)C(=O)N[C@@H]([C@H](C)CC(=O)O)C(=O)N[C@@H](CC(=O)c2ccccc2N)C(=O)O[C@@H]1C [Daptomycin (5 Millimolar/dmso)] | – | – | Q4 | – | 1 | −6 | 17 | 0 | – | –
N=C(N)N1CCc2ccccc2C1 [Debrisoquin] | 8 | 17 | Q4 | 0 | 1 | – | – | – | – | –
C[N+](C)(C)CCCCCCCCCC[N+](C)(C)C [Decamethonium] | 1 | 17 | Q4 | 0 | 0 | – | – | – | – | –
CCCCCCCCCCOc1cc2c(O)c(C(=O)OCC)cnc2cc1OCC [Decoquinate] | 7 | 20 | Q4 | 1 | 1 | – | – | – | – | –
CCN(CC)C(=O)c1cccc(C)c1 [Deet, Diethyltoluamide] | – | – | Q4 | – | 0 | −38 | 6 | 0 | – | –
CC(=O)N(O)CCCCCNC(=O)CCC(=O)N(O)CCCCCNC(=O)CCC(=O)N(O)CCCCCN [Deferoxamine] | 2 | 32 | Q4 | 0 | 1 | – | – | – | – | –
C[C@H](CCC(=O)O)[C@H]1CC[C@H]2[C@@H]3C(=O)C[C@@H]4CC(=O)CC[C@]4(C)[C@H]3CC(=O)[C@]12C [Dehydrocholic Acid] | -30 | 7 | Q4 | 0 | 1 | – | – | – | – | –
CC(C)Nc1cccnc1N1CCN(C(=O)c2cc3cc(NS(C)(=O)=O)ccc3[nH]2)CC1 [Delavirdine] | -11 | 9 | Q4 | 1 | 1 | – | – | – | – | –
CC[N+](CC)(CC(=O)Nc1c(C)cccc1C)Cc1ccccc1 [Denatonium Benzoate] | 2 | 12 | Q4 | 0 | 0 | – | – | – | – | –
Cc1cc(N)c2ccccc2[n+]1CCCCCCCCCC[n+]1c(C)cc(N)c2ccccc21 [Dequadin] | -32 | 2 | Q4 | 0 | 0 | – | – | – | – | –
COc1ccc(-c2cc(C(F)F)nn2-c2ccc(S(N)(=O)=O)cc2)cc1F [Deracoxib] | -34 | 8 | Q4 | 0 | 0 | – | – | – | – | –
CCN[C@@H](C)Cc1cccc(C(F)(F)F)c1 [Dexfenfluramine] | -15 | 5 | Q4 | 0 | 1 | – | – | – | – | –
Cc1c(OCC(F)(F)F)ccnc1C[S@@+]([O-])c1nc2ccccc2[nH]1 [Dexlansoprazole] | -23 | -12 | Q4 | 0 | 0 | – | – | – | – | –
CC(C)(CO)[C@@H](O)C(=O)NCCCO [Dexpanthenol] | -1 | 11 | Q4 | 0 | 0 | – | – | – | – | –
COc1ccc2c(c1)[C@]13CCCC[C@@H]1[C@H](C2)N(C)CC3 [Dextromethorphan] | – | – | Q4 | 0 | 1 | – | – | – | −18% and −20% | 4% and −5%
CCC(=O)O[C@](Cc1ccccc1)(c1ccccc1)[C@H](C)CN(C)C [Dextropropoxyphene] | -25 | 15 | Q4 | 0 | 1 | – | – | – | – | –
CC(=O)Oc1cccc2c1C(=O)c1c(OC(C)=O)cc(C(=O)O)cc1C2=O [Diacerin] | – | – | Q4 | – | 1 | −30 | 10 | 0 | – | –
CC(=O)Nc1ccc(OC(C)=O)cc1 [Diacetamate] | -25 | 21 | Q4 | 0 | 1 | – | – | – | – | –
CCOP(=S)(OCC)Oc1cc(C)nc(C(C)C)n1 [Diazinon, Dimpylate] | – | – | Q4 | – | 1 | −7 | −8 | 0 | – | –
